Reference: patent publication EP4603105A1, “PHARMACEUTICAL COMPOSITION CONTAINING CYCLIC COMPOUND HAVING SELECTIVE KRAS INHIBITORY EFFECT AGAINST HRAS AND NRAS” (CHUGAI SEIYAKU KABUSHIKI KAISHA, priority 2022, dated 2024)
Where a SMILES comes first, the peptide text is derived from it. Bridges are numbered along the chain shown (N, C = ends). [ ]: non-standard residue; d: D form. The star is where a group is joined. hPhe(3-Cl-4-CF3) = N[C@@H](CCc1ccc(C(F)(F)F)c(Cl)c1)C(=O)O; NPrPhe(4-CF3) = CCCN[C@@H](Cc1ccc(C(F)(F)F)cc1)C(=O)O; NMePhe(4-Me) = CN[C@@H](Cc1ccc(C)cc1)C(=O)O; NMeGly(cPent) = CN[C@H](C(=O)O)C1CCCC1; NMeD = CN[C@@H](CC(=O)O)C(=O)O; NMeL = CN[C@@H](CC(C)C)C(=O)O; Morpholide = C1CN(*)CCO1; NMeA = CN[C@@H](C)C(=O)O; Ac5c = NC1(C(=O)O)CCCC1; Aze = O=C(O)[C@@H]1CCN1; Aib = CC(C)(N)C(=O)O; NEtG = CCNCC(=O)O; Sar = CNCC(=O)O

Legend:
[1] = system: human lung cancer strain NCI-H441; type: cell-based
How it was run: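 Step one: dispense the test compound in serial DMSO dilutions. Step three: add the reagent and measure […].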

HRAS wild-type protein = HRAS wild-type protein (Homo sapiens, UniProt P01112); test: Binding to HRAS by surface plasmon resonance (SPR), KD and KD ratio to KRAS
HRAS wild-type protein, sequence (P01112 whole entry): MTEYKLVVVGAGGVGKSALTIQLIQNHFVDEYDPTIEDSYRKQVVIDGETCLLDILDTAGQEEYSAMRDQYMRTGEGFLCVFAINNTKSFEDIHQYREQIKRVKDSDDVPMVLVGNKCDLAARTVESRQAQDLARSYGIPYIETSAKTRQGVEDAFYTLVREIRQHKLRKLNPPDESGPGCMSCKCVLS
How it was run: (§1)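 Captured GDP-RAS (~100–300 RU) was exposed to increasing compound concentrations, 75 s per step, in running buffer with 10 µM GDP, 10 mM MgCl2 and 4% DMSO at pH 7.4.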

[2] = molecular target: GDP-bound NRAS wild-type protein (Homo sapiens, UniProt P01111); test: Binding to NRAS by surface plasmon resonance (SPR), KD and KD ratio to KRAS
GDP-bound NRAS wild-type protein, sequence (P01111 whole entry): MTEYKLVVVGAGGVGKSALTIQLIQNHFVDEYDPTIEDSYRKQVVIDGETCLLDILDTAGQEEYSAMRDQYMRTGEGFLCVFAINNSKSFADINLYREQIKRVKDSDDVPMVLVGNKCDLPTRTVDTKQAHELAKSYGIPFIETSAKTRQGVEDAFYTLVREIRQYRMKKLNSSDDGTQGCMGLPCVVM
How it was run: as §1

[3] = ratio of the KD value with respect to HRAS wild-type protein to the KD value with respect to KRAS
[4] = ratio of the KD value with respect to GDP-bound NRAS wild-type protein to the KD value with respect to KRAS
[5] = ratio of KD for HRAS wild-type protein to KD for KRAS
[6] = ratio of KD for GDP-bound NRAS wild-type protein to KD for KRAS
[7] = ratio of KD value for HRAS wild-type protein to KD value for KRAS (SPR)
[8] = ratio of KD value for GDP-bound NRAS wild-type protein to KD value for KRAS (SPR)

Row | Compound | IC50 [1] | HRAS /KRAS (HRAS wild-type protein; [3]) | NRAS /KRAS [2, 4] | HRAS /KRAS (HRAS wild-type protein; [5]) | NRAS /KRAS [2, 6] | HRAS /KRAS (HRAS wild-type protein; [7]) | NRAS /KRAS [2, 8]
1 | CC[C@H](C)[C@@H]1NC(=O)[C@H](CC(C)C)N(C)C(=O)C[C@@H](C(=O)N(C)C)N(C)C(=O)[C@H](C2CCCC2)N(C)C(=O)C2(CCC2)NC(=O)[C@@H]2CC(F)(F)CN2C(=O)[C@H](CCc2cc(F)c(C(F)(F)F)c(F)c2)NC(=O)CN(C)C(=O)[C@H](Cc2ccc(C(F)(F)F)cc2)N2CCCC[C@@H](C2=O)N(C)C(=O)CN(C)C1=O [PP0577] | 2.4 nM | C (A compound having a KD ratio of 0.1 or more and less than 3 is denoted as C) | C (A compound having a KD ratio of 0.1 or more and less than 3 is denoted as C) | – | – | – | –
2 | CC[C@H](C)[C@@H]1NC(=O)[C@H](CC(C)C)N(C)C(=O)C[C@@H](C(=O)N2CCOCC2)N(C)C(=O)[C@H](C2CCCC2)N(C)C(=O)C2(CCCC2)NC(=O)[C@@H]2CCCN2C(=O)[C@H](CCc2ccc(C(F)(F)F)c(Cl)c2)NC(=O)CN(CC)C(=O)[C@H](Cc2ccc(C)cc2)N(C)C(=O)CN(C)C(=O)CN(C)C1=O [PP0025] ([NMeL]I[Sar][Sar][NMePhe(4-Me)][NEtG][hPhe(3-Cl-4-CF3)]P[Ac5c][NMeGly(cPent)][NMeD]-Morpholide; lactam N-11) | 27.5 nM | – | – | C (A compound having a KD ratio of 0.1 or more and less than 3 is denoted as C) | C (A compound having a KD ratio of 0.1 or more and less than 3 is denoted as C) | – | –
3 | CCC[C@H]1C(=O)N[C@@H]([C@@H](C)CC)C(=O)N(C)CC(=O)N(C)[C@H]2C/C=C\CCN(C2=O)[C@@H](Cc2ccc(C(F)(F)F)cc2)C(=O)N(C)CC(=O)N[C@@H](CCc2cc(F)c(C(F)(F)F)c(F)c2)C(=O)N2C[C@H](OCC)C[C@H]2C(=O)NC2(CC(F)(F)C2)C(=O)N(C)[C@@H](C2CCCC2)C(=O)N(C)[C@H](C(=O)N(C)CCC)CC(=O)N1C [PP1736] | 3.6 nM | – | – | – | – | A (a compound having 10 or more and less than 20 is denoted as A) | A (a compound having 10 or more and less than 20 is denoted as A)
4 | CCCN1C(=O)[C@@H]2CCN2C(=O)[C@H](C)N(C)C(=O)[C@H]([C@@H](C)CC)NC(=O)[C@H](CC(C)C)N(C)C(=O)C[C@@H](C(=O)N2CCOCC2)N(C)C(=O)[C@H](C2CCCC2)N(C)C(=O)C(C)(C)NC(=O)[C@@H]2CCCN2C(=O)[C@H](CCc2ccc(C(F)(F)F)c(Cl)c2)NC(=O)CN(C)C(=O)[C@@H]1Cc1ccc(C(F)(F)F)cc1 [PP0225] ([NMeL]I[NMeA][Aze][NPrPhe(4-CF3)][Sar][hPhe(3-Cl-4-CF3)]P[Aib][NMeGly(cPent)][NMeD]-Morpholide; lactam N-11) | 2.4 nM | – | – | C (A compound having a KD ratio of 0.1 or more and less than 3 is denoted as C) | C (A compound having a KD ratio of 0.1 or more and less than 3 is denoted as C) | – | –
5 | C#CC[C@H]1C(=O)N[C@@H]([C@@H](C)CC)C(=O)N(C)CC(=O)N(C)[C@H]2C/C=C\CCN(C2=O)[C@@H](Cc2ccc(C(F)(F)F)cc2)C(=O)N(C)CC(=O)N[C@@H](CCc2ccc(C(F)(F)F)c(OC)c2)C(=O)N2C[C@@H](C)C[C@H]2C(=O)NC2(CCC2)C(=O)N(C)[C@@H](C2CCCC2)C(=O)N(C)[C@H](C(=O)N(C)CC)CC(=O)N1C [PP2061] | 6.1 nM | A (a compound having 10 or more and less than 20 is denoted as A) | AA (a compound having 20 or more is denoted as AA) | – | – | – | –
6 | CCC[C@H]1C(=O)N[C@@H]([C@@H](C)CC)C(=O)N(C)CC(=O)N(C)[C@H]2CCCCN(C2=O)[C@@H](Cc2ccc(C(F)(F)F)cc2)C(=O)N(C)CC(=O)N[C@@H](CCc2cc(F)c(C(F)(F)F)c(F)c2)C(=O)N2C[C@H](OCC)C[C@H]2C(=O)NC2(CCC2)C(=O)N(C)[C@@H](C2CCCC2)C(=O)N(C)[C@H](C(=O)N(C)C)CC(=O)N1C [PP0694] | 3.5 nM | C (A compound having a KD ratio of 0.1 or more and less than 3 is denoted as C) | C (A compound having a KD ratio of 0.1 or more and less than 3 is denoted as C) | – | – | – | –
7 | CCO[C@@H]1C[C@H]2C(=O)NC3(CC(C)(C)C3)C(=O)N(C)[C@@H](C(CC)CC)C(=O)N(C)[C@H](C(=O)N(C)C)CC(=O)N(C)[C@@H](CC(C)C)C(=O)N[C@@H]([C@@H](C)CC)C(=O)N(C)CC(=O)N(C)[C@H]3C/C=C\CCN(C3=O)[C@@H](Cc3ccc(C(F)(F)F)cc3)C(=O)N(C)CC(=O)N[C@@H](CCc3ccc(C(F)(F)F)c(Cl)c3)C(=O)N2C1 [PP2132] | 18.4 nM | A (a compound having 10 or more and less than 20 is denoted as A) | AA (a compound having 20 or more is denoted as AA) | – | – | – | –
8 | CC[C@H](C)[C@@H]1NC(=O)[C@H](CC)N(C)C(=O)C[C@@H](C(=O)N(C)C)N(C)C(=O)[C@H](C2CCCC2)N(C)C(=O)C2(CCC2)N(C)C(=O)[C@@H]2CCCN2C(=O)[C@H](CCc2cc(F)c(C(F)(F)F)c(F)c2)NC(=O)CN(C)C(=O)[C@H](Cc2ccc(C)cc2)N2CC/C=C\C[C@@H](C2=O)N(C)C(=O)[C@@H]2CCCN2C1=O [PP1786] | 11.4 nM | – | – | – | – | B (a compound having 3 or more and less than 10 is denoted as B) | A (a compound having 10 or more and less than 20 is denoted as A)
9 | CCO[C@@H]1C[C@H]2C(=O)NC3(CC(C)(C)C3)C(=O)N(C)[C@@H](C3CCCC3)C(=O)N(C)[C@H](C(=O)N(C)CC)CC(=O)N(C)[C@H]3CCCCCCc4ccc(cc4)C[C@@H](C(=O)N(C)CC(=O)N[C@@H](CCc4ccc(C(F)(F)F)c(OC)c4)C(=O)N2C1)N1CC/C=C\C[C@@H](C1=O)N(C)C(=O)CN(C)C(=O)[C@H]([C@@H](C)CC)NC3=O [PP2260] | 1.9 nM | A (a compound having 10 or more and less than 20 is denoted as A) | A (a compound having 10 or more and less than 20 is denoted as A) | – | – | – | –
10 | CC[C@H](C)[C@@H]1NC(=O)[C@H](CC(C)C)N(C)C(=O)C[C@@H](C(=O)N2CCOCC2)N(C)C(=O)[C@H](C2CCCC2)N(C)C(=O)C2(CCCC2)NC(=O)[C@@H]2CC(F)(F)CN2C(=O)[C@H](CCc2ccc(C(F)(F)F)c(Cl)c2)NC(=O)CN(C)C(=O)[C@H](Cc2ccc(F)cc2)N2CCCCC[C@@H](C2=O)N(C)C(=O)CN(C)C1=O [PP0966] | 34.6 nM | – | – | B (a compound having 3 or more and less than 10 is denoted as B) | B (a compound having 3 or more and less than 10 is denoted as B) | – | –
11 | CCC[C@H]1C(=O)N[C@@H]([C@@H](C)CC)C(=O)N(C)CC(=O)N(C)[C@H]2C/C=C\CCN(C2=O)[C@@H](Cc2ccc(C)cc2)C(=O)N(C)CC(=O)N[C@@H](CCc2ccc(CC)c(Cl)c2)C(=O)N2C[C@H](OCC)C[C@H]2C(=O)NC2(CC(C)(C)C2)C(=O)N(C)[C@@H](C2CCCC2)C(=O)N(C)[C@H](C(=O)N(C)C)CC(=O)N1C [PP2778] | 22.3 nM | – | – | A (a compound having 10 or more and less than 20 is denoted as A) | A (a compound having 10 or more and less than 20 is denoted as A) | – | –
12 | CCO[C@@H]1C[C@H]2C(=O)NC3(CC(C)(C)C3)C(=O)N(C)[C@@H](C(CC)CC)C(=O)N(C)[C@H](C(=O)N(C)C)CC(=O)N(C)[C@@H](CC3CC3)C(=O)N[C@@H]([C@@H](C)CC)C(=O)N(C)CC(=O)N(C)[C@H]3C/C=C\CCN(C3=O)[C@@H](Cc3ccc(C(F)(F)F)cc3)C(=O)N(C)CC(=O)N[C@@H](CCc3cc(F)c(C(F)(F)F)c(F)c3)C(=O)N2C1 [PP2119] | 8.9 nM | B (a compound having 3 or more and less than 10 is denoted as B) | A (a compound having 10 or more and less than 20 is denoted as A) | – | – | – | –
13 | CCO[C@@H]1C[C@H]2C(=O)NC3(CCCC3)C(=O)N(C)[C@@H](C3CCCC3)C(=O)N(C)[C@H](C(=O)N3CCOCC3)CC(=O)N(C)[C@@H](CC(C)C)C(=O)N[C@@H]([C@@H](C)CC)C(=O)N(C)CC(=O)N(C)[C@H]3CCCCCN(C3=O)[C@@H](Cc3ccc(C(F)(F)F)cc3)C(=O)N(C)CC(=O)N[C@@H](CCc3cc(F)c(C(F)(F)F)c(F)c3)C(=O)N2C1 [PP0492] | 31.9 nM | B (a compound having 3 or more and less than 10 is denoted as B) | B (a compound having 3 or more and less than 10 is denoted as B) | – | – | – | –
14 | CC[C@H](C)[C@@H]1NC(=O)[C@H](CC(C)C)N(C)C(=O)C[C@@H](C(=O)N(C)CC)N(C)C(=O)[C@H](C2CCCC2)N(C)C(=O)C2(CC(C)(C)C2)NC(=O)[C@@H]2C[C@@H](F)CN2C(=O)[C@H](CCc2cc(F)c(C(F)(F)F)c(F)c2)NC(=O)CN(C)C(=O)[C@H](Cc2ccc(C(F)(F)F)cc2)N2CC/C=C\C[C@@H](C2=O)N(C)C(=O)CN(C)C1=O [PP1694] | 4.1 nM | – | – | – | – | A (a compound having 10 or more and less than 20 is denoted as A) | A (a compound having 10 or more and less than 20 is denoted as A)
15 | CCO[C@@H]1C[C@H]2C(=O)NC3(CC(C)(C)C3)C(=O)N(C)[C@@H](C3CCCC3)C(=O)N(C)[C@H](C(=O)N(C)C)CC(=O)N(C)[C@@H](CC(C)C)C(=O)N[C@@H]([C@@H](C)CC)C(=O)N(C)CC(=O)N(C)[C@H]3C/C=C\CCN(C3=O)[C@@H](Cc3ccc(C(F)(F)F)cc3)C(=O)N(C)CC(=O)N[C@@H](CCc3cc(F)c(C(F)(F)F)c(F)c3)C(=O)N2C1 [PP1650] | 1.2 nM | – | – | – | – | A (a compound having 10 or more and less than 20 is denoted as A) | A (a compound having 10 or more and less than 20 is denoted as A)
